Measured values published in US20240018121A1, “NOVEL HETEROAROMATIC COMPOUNDS EXHIBITING ANTIFUNGAL ACTIVITY AND THEIR METHOD OF USE” (FOX CHASE CHEMCIAL DIVERSITY CENTER, INC., priority 2020, published 2024).
Counter-ions that a name gives are not always drawn.

Experiments:
Type in all cases: cell-based
[1] = test system: Mucor ramosissimus 057718 (ATCC 90286); assay: Fungal MIC Protocol, Mucor ramosissimus (MIC-50); details: Mucor ramosissimus, ATCC90286, 48 h, read-out: MIC-50 Mucorales ramosissimus 90286
How it was run: (§1)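 Harvested spores, adjusted by OD530 to about 2×10^4 cfu/mL in RPMI/MOPS pH 7.0, are mixed with ten duplicate serial dilutions of compound. Incubation runs 48 h at 35° C before visual scoring of the lowest concentration inhibiting growth >50%.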

[2] = test system: Candida albicans GDH2346; assay: Candida Minimal Inhibitory Concentration (MIC); details: Candida albicans, GDH2346, 48 h, read-out: MIC-50 Candida albicans GDH2346
How it was run: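 Twofold serial dilutions from 200 μg/mL in RPMI 1640/MOPS with glucose, pH 7.0, tested in duplicate against yeast from an OD600 1.0 suspension diluted 1:1000. Incubated at 35° C; OD600 read at 24 and 48 h.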

[3] = test system: Mucor circinelloides 1463(62) (ATCC 26759); assay: Fungal MIC Protocol, Mucor circinelloides (MIC-50); details: Mucor circinelloides, ATCC26759, 48 h, read-out: MIC-50 Mucorales circinelloides 26579
How it was run: as §1

[4] = test system: Aspergillus flavus AFL1 (ATCC MYA-3631); assay: Fungal MIC Protocol, Aspergillus flavus; details: Aspergillus flavus, 48 h, read-out: MIC Aspergillus flavus 3631
How it was run: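 The MIC against Aspergillus flavus was measured by broth microdilution in RPMI/MOPS medium at pH 7.0. Compounds were diluted to 200 ug/mL from DMSO stocks, then ten serial dilutions were tested in duplicate in round bottom 96-well plates. Spores adjusted to a final OD530 of 0.002 were added, with no-cell and no-compound control wells, and plates were incubated 48 hours at 35° C.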

[5] = test system: Aspergillus fumigatus T33439 (ATCC MYA-3626); assay: Fungal MIC Protocol, Aspergillus fumigatus; details: Aspergillus fumigatus, 48 h, read-out: MIC Aspergillus fumigatus 3626
How it was run: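 This broth microdilution MIC test used RPMI/MOPS medium at pH 7.0 with glucose. Compounds were diluted from DMSO stock to 200 ug/mL and serially diluted ten times in 96-well round bottom plates. Equal volumes of compound and Aspergillus spore suspension at OD530 0.002 were combined, with controls of compound without cells and spores without compound. Plates were bagged and incubated at 35° C. for 48 hours.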

[6] = test system: Fusarium falciforme FS1 (ATCC MYA-3636); assay: Fungal MIC Protocol, Fusarium falciforme; details: Fusarium falciforme, 48 h, read-out: MIC Fusarium falciforme 3636
How it was run: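 MIC against Fusarium falciforme was determined by broth microdilution in RPMI/MOPS medium containing glucose. Compounds started at 200 ug/mL and were serially diluted ten times, then combined with harvested spores adjusted to an OD530 of 0.005. Controls held compound without cells and spores without compound. Plates were bagged and incubated at 35° C. for 48 hours.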

[7] = test system: Fusarium solani (ATCC 58877); assay: Fungal MIC Protocol, Fusarium solani; details: Fusarium solani, ATCC58877, 48 h, read-out: MIC Fusarium solani 58877
How it was run: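 Broth microdilution MIC test against Fusarium solani in RPMI/MOPS medium at pH 7.0. Compounds from DMSO stock were diluted to 200 ug/mL, then serially diluted ten times and plated in duplicate at 50 μl per well. 50 ul of spore suspension at OD530 0.005 was added. Controls had compound without cells and spores without compound. Plates were mixed gently, bagged, and incubated at 35° C. for 48 hours.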

Cn1c(-c2ccc(C3=CCC(C(=N)N)CC3)cc2F)nnc1-c1ccc(C2=CCC(C(=N)N)CC2)cc1F (stereo not shown) [Example 87, 4-(4-{5-[4-(4-carbamimidoylcyclohex-1-en-1-yl)-2-fluorophenyl]-4-methyl-4H-1,2,4-triazol-3-yl}-3-fluorophenyl)cyclohex-3-ene-1-carboximidamide trifluoroacetate]
MIC50 [1]: 3.13 µg/mL | MIC50 [2]: 0.2 µg/mL | MIC50 [3]: 0.39 µg/mL | MIC [4]: 0.78 µg/mL | MIC [5]: 0.2 µg/mL | MIC [6]: 0.1 µg/mL | MIC [7]: 0.2 µg/mL
